# Laboratory results published in article PMC3733081 (Journal of chemical information and modeling, 2013).
# Read-outs that look alike come from different tables or passages of the source.
# Tests used:
# [1] = value without superscript b; ref ClogP database; cited from earlier work
# n-hexadecane/1-octanol = conditions: for logP C16/O: calculated as logPC16/W-logPO/W
# n-hexadecane/water = conditions: for P (n-hexadecane/water partition coefficient): shake-flask, P=l1/l2, ± error
# [2] = value without superscript a: measured and listed in Table S1; cited from earlier work
# [3] = 25 °C, shaking at 25 rpm, fit of eqs 1 and 2
Compound,logP C16/O (n-hexadecane/1-octanol),P (n-hexadecane/water partition coefficient) (n-hexadecane/water; 25 °C),l1 (rate parameter of transport from water to C16) (n-hexadecane/water; [3]),l2 (rate parameter of transport from C16 to water) (n-hexadecane/water; [3]),also measured
Cn1c2ccccc2c2ccccc21 [N-methylcarbazole],0.799,,,,logP O/W [1]: 3.990
c1ccc2[nH]ccc2c1 [indole],−0.920,5.660±0.633,(6.291±0.522)×10^−1 cm/h,(1.111±0.083)×10^−1 cm/h,
CCOC(=O)c1cccnc1 [ethylnicotinate],,3.583±0.983,(5.074±1.031)×10^−1 cm/h,(1.416±0.261)×10^−1 cm/h,
OCc1ccccc1 [benzylalcohol],−1.530,,,,logP C16/W [2]: −0.430
Cc1c[nH]c2ccccc12 [3-methylindole],−1.360,,,,logP C16/W [2]: 0.810
"FC(F)(F)C(Cl)Br (stereo not shown) [halothane, reference compound]",−0.200,,,,logP C16/W [2]: 2.100
CCc1ccccc1 [ethylbenzene],0.050,,,,
O=CNc1ccccc1 [formanilide],,2.900±0.955)×10^−1,(1.532±0.501)×10^−1 cm/h,(5.283±0.213)×10^−1 cm/h,
CC(C)(c1ccc(O)cc1)c1ccc(O)cc1 [bisphenol A],−4.222,,,,logP C16/W [2]: −0.902
O=C(c1ccccc1)c1ccc(Cl)cc1 [4-chlorobenzophenone],,(7.315±2.674)×10^2,(1.102±0.216)×10^2 cm/h,(1.507±0.465)×10^−1 cm/h,
CCCCCc1cc(OC)c2c(c1)OC(C)(C)C1CC=C(C)CC21 (stereo not shown) [methoxy-Δ8-tetrahydrocannabinol],0.027,,,,logP O/W [1]: 8.060
O=C(c1ccccc1)c1ccc(Br)cc1 [4-bromobenzophenone],,(2.891±0.684)×10^2,(1.054±0.026)×10^1 cm/h,(3.646±0.858)×10^−2 cm/h,
NCCc1c2ccccc2cc2ccccc12 [9-anthracene-ethanamine],−1.549,,,,
c1ccc2c(c1)[nH]c1ccccc12 [9H-carbazole],−0.851,,,,
O=[N+]([O-])c1ccccc1 [nitrobenzene],,,,,l1 (rate parameter of transport from water to C16) (n-hexadecane/water): 1.162 ± 0.218 cm/h; l2 (rate parameter of transport from C16 to water) (n-hexadecane/water): (3.950±0.694)×10^−2 cm/h
"O=C(O)CCc1ccc(C=CC=CC=Cc2ccccc2)cc1 [4-(6-phenyl-1,3,5-hexatrien-1-yl)-benzenepropanoic acid]",−2.702,,,,
NC(=O)Cc1ccccc1 [2-phenylacetamide],,,(1.624±0.359)×10^−2 cm/h,(2.771±0.857)×10^−1 cm/h,
CC(C)c1c(O)ccc2c1CC[C@H]1C(C)(C)CCC[C@]21C [totarol],−0.924,,,,
Cc1ccc(Cl)cc1[N+](=O)[O-] [4-chloro-2-nitrotoluene],,(8.660±3.938)×10^2,(2.168±0.605)×10^2 cm/h,(2.504±0.899)×10^−1 cm/h,
OCc1c2ccccc2cc2ccccc12 [9-anthracenemethanol],−0.700,(2.211±0.554)×10^2,1.565 ± 0.236 cm/h,(7.080±1.416)×10^−3 cm/h,logP O/W [1]: 3.040
Nc1ccccc1 [aniline],,(7.860±1.639)×10^−1,(1.502±0.286)×10^−1 cm/h,(1.912±0.162)×10^−1 cm/h,
CCCCCO [1-pentanol],−1.745,,,,
CCCCCCCCCC [n-decane],1.030,,,,logP C16/W [2]: 7.010
"CCOC(=O)c1ccc(N)cc1 [benzocaine, reference compound]",,1.560±0.666,(1.163±0.488)×10^−1 cm/h,(7.455±0.577)×10^−2 cm/h,
"Cn1c(=O)c2c(ncn2C)n(C)c1=O [caffeine, reference compound]",,,(5.485±0.851)×10^−2 cm/h,(2.309±0.430)×10^−1 cm/h,
C1=Cc2ccccc2C1 [1H-indene],−0.078,,,,logP O/W [1]: 2.920

Compound,logP C16/O (n-hexadecane/1-octanol),P (n-hexadecane/water partition coefficient) (n-hexadecane/water; 25 °C),l1 (rate parameter of transport from water to C16) (n-hexadecane/water; [3]),l2 (rate parameter of transport from C16 to water) (n-hexadecane/water; [3]),also measured
CCCCCCCO [1-heptanol],−1.655,,,,
CCCCCCCCO [1-octanol],−1.310,,,,
"FC1(F)CCC1(F)Cl (stereo not shown) [1-chloro-1,2,2-trifluorocyclobutane]",1.436,,,,
CC(C)(C)CC(C)(C)c1ccc(O)cc1 [4-tert-octylphenol],−1.665,,,,
"CN[C@@H](C)[C@H](O)c1ccccc1 [ephedrine, reference compound]",−1.770,,,,logP C16/W [2]: −0.840
Cn1ccc2ccccc21 [N-methylindole],0.969,,,,
Nc1cccc(Br)c1 [3-bromoaniline],,(1.107±0.106)×10^1,(6.304±0.471)×10^−1 cm/h,(5.693±0.339)×10^−2 cm/h,
"FC(F)OC(Cl)C(F)(F)F (stereo not shown) [isofluorane, reference compound]",−0.410,,,,
Oc1ccccc1-c1ccccc1 [2-phenylphenol],,(3.536±1.329)×10^1,(3.699±0.935)×10^−1 cm/h,(1.046±0.291)×10^−2 cm/h,
O=C(O)CCCCCCCCCCn1c2ccccc2c2ccccc21 [11-(9-carbazole)-undecanoic acid],−1.418,,,,
O=C(O)CCCc1c[nH]c2ccccc12 [1H-indole-3-butanoic acid],−3.531,,,,
c1ccc2ncccc2c1 [quinoline],,,(3.766±0.198)×10^−1 cm/h,(3.566±1.200)×10^−2 cm/h,
CNC(=O)c1ccccc1 [N-methylbenzamide],,(6.450±1.180)×10^−1,(4.982±0.860)×10^−1 cm/h,(7.724±0.467)×10^−1 cm/h,
c1ccncc1 [pyridine],,,,,l1 (rate parameter of transport from water to C16) (n-hexadecane/water): (9.512±0.343)×10^−2 cm/h; l2 (rate parameter of transport from C16 to water) (n-hexadecane/water): (2.672±0.669)×10^−1 cm/h
O=C=O [carbon dioxide],,,,,"affinity for n-hexadecane versus 1-octanol (logPC16/W vs logPO/W, Figure 1) (n-hexadecane/1-octanol; small molecules plotted as crosses in Figure 1): not observed"
CCC(O)c1ccccc1 (stereo not shown) [1-phenyl-1-propanol],,3.153±0.630,(3.864±0.154)×10^−1 cm/h,(1.226±0.240)×10^−1 cm/h,
"COc1ccccc1OC [1,2-dimethoxybenzene]",,(2.723±1.352) ×10^1,1.171 ± 0.535 cm/h,(4.301±0.840)×10^−2 cm/h,
CCCCCc1cc(O)c2c(c1)OC(C)(C)[C@@H]1CC=C(C)C[C@@H]21 [Δ8-tetrahydrocannabinol],−2.139,,,,logP O/W [1]: 7.410
C=CCc1ccccc1O [2-allylphenol],,,(2.286±0.857)×10^−1 cm/h,(3.211±0.685)×10^−2 cm/h,
Cc1cc(O)ccc1Cl [4-chloro-3-methylphenol],,1.651±0.701,(1.491±0.611)×10^−1 cm/h,(9.029±1.001)×10^−2 cm/h,
Cc1c2ccccc2cc2ccccc12 [9-methylanthracene],−0.015,,,,logP O/W [1]: 5.070
Nc1ccc([N+](=O)[O-])cc1 [4-nitroaniline],,(1.890±0.656)×10^−1,(1.192±0.406)×10^−1 cm/h,(6.295±0.407)×10^−1 cm/h,
CC(=O)Nc1ccccc1 [acetanilide],,(2.580±0.857)×10^−1,(1.315±0.434)×10^−1 cm/h,(5.104±0.179)×10^−1 cm/h,
O=C(O)Cc1c2ccccc2cc2ccccc12 [9-anthracene-acetic acid],−2.570,,,,
"Cc1ccc(C=CC=CC=Cc2ccccc2)cc1 [1-methyl-4-(6-phenyl-1,3,5-hexatrien-1-yl)-benzene]",0.193,,,,
"C(=CC=Cc1ccccc1)C=Cc1ccccc1 [1,6-diphenyl-1,3,5-hexatriene]",0.188,,,,
